Patent US20220264878A1, “HERBICIDAL COMPOSITION CONTAINING R-TYPE PYRIDYLOXY CARBOXYLIC ACID DERIVATIVE AND USE THEREOF” (Qingdao Kingagroot Chemical Compound Co., Ltd., priority 2019, published 2022)
Like-named read-outs stand apart in the source and are kept apart here.

Tests used:
Assay in all cases: Post-emergence foliage spray, pot culture, fresh weight inhibition (Tables 1-48, 51-98, 101-148; 24 days)
Format in all cases: in vivo
[1] = test system: Echinochloa crusgalli var. zelayensis; conditions: Echinochloa crus-galli, foliar, 576 h, foliage spray, 24 days, read-out: Control effect (%) of B applied alone in corresponding dose; for pest or weed control at 3.75 g/ha: B 3.75 g a.i./ha; for pest or weed control at 7.5 g/ha: B 7.5 g a.i./ha; for pest or weed control at 15 g/ha: B 15 g a.i./ha; for pest or weed control at 30 g/ha: B 30 g a.i./ha
Procedure: (§1) The above weeds were cultivated by a pot culture method. […] Full and uniform weed seeds were selected, soaked in warm water at 25° C. for 6 hours, and germinated in a 28° C. biochemical incubator (darkness). The weed seeds that had just germinatedwere evenly placed on the surface of the soil and then covered with 0.5-1 cm soil according to the sizes of seeds.
(§2) The technical materials were all dissolved in acetone, and diluted with an aqueous solution containing 0.1% emulsifier Tween-80. The dilution is performed as required.
(§3) A ratio of the active ingredient A to the active ingredient B and amounts thereof in each group depends on the characteristics and toxicity of the two agents, as well as the main application purpose of a corresponding formulation. Based on the pre-tests in this study, the dosage of the active ingredient A and B applied alone and in combination were shown in the tables. Water containing the solvent and emulsifier same with the above groups but free of the agents was used as a blank control.
(§4) In the stage of weeds with 3˜4 leaves, the weeds were thinned out to maintain 15 weeds per pot and 45 weeds for each treatment, then continued to be cultured to 5˜6 leaves stage of grassy weeds, 6˜7 leaves stage of broadleaf weeds, and treated.
(§5) The well-cultured weeds were evenly placed on a platform with an area of 0.5 m^2, and a solution of agents was sprayed on the stems and leaves thereof by the 3WP-2000-type walking spray tower at a dosage of 450 kg/ha and at a spray pressure of 0.3 MPa. After all the solution was sprayed, the valve was closed. After 30 seconds, the door of the spray tower was opened, and the nutritional bowl was taken out. Then the valve was opened, and the spray tube was cleaned by spraying 50 ml of water.
(§6) A pot-culture method was employed. For the cultivation of weeds, please refer to the Section 1.1), and “Pesticide guidelines for laboratory bioactivity tests—herbicides”. As to a method for applying agents, please refer to the section 2.3.2), that is, a foliage treatment was employed. After the treatment, the weeds were routinely cultured in a greenhouse.
(§7) A method for investigating absolute number was employed, wherein whole seedlings of survival weeds were cut off with a blade along the soil surface, and the fresh weight of the weeds was weighed with an analytical balance. For dead weeds, the fresh weight thereof was zero.
(§8) Wherein, in the formula, X represented the fresh weight inhibition rate of the active ingredient A in a dosage of P, and Y represented the fresh weight inhibition rate of the active ingredient B in a dosage of Q.

Echinochloa oryzoides = conditions: Echinochloa oryzoides, 576 h, read-out: Control effect (%) of B applied alone in corresponding dose; for pest or weed control at 3.75 g/ha: 3.75 g a.i./ha; for pest or weed control at 7.5 g/ha: 7.5 g a.i./ha; for pest or weed control at 15 g/ha: 15 g a.i./ha; for pest or weed control at 30 g/ha: 30 g a.i./ha
Procedure: as §1, §2, §3, §4, §5, §6, §7, §8

Echinochloa caudate = conditions: Echinochloa, 576 h, read-out: Control effect (%) of B applied alone in corresponding dose
Procedure: as §1, §2, §3, §4, §5, §6, §7, §8

In the case of COCc1cnc(C2=NC(C)(C(C)C)C(=O)N2)c(C(=O)O)c1 (stereo not drawn) [imazamox], the pest or weed control at 3.75 g/ha [1] is reported as 6.9%, the pest or weed control at 7.5 g/ha [1] is reported as 14.2% and the pest or weed control at 15 g/ha [1] is reported as 25.1%. For the same compound, the pest or weed control at 30 g/ha [1] was 54.8%, the pest or weed control at 3.75 g/ha (Echinochloa oryzoides; Table 109) was 4% and the pest or weed control at 7.5 g/ha (Echinochloa oryzoides; Table 109) was 12.6%. The pest or weed control at 15 g/ha (Echinochloa oryzoides; Table 109) was 27.6%, the pest or weed control at 30 g/ha (Echinochloa oryzoides; Table 109) was 54.4% and the pest or weed control at 3.75 g/ha (Echinochloa caudate; imazamox 3.75 g a.i./ha) was 7.6%. For the same compound, the pest or weed control at 7.5 g/ha (Echinochloa caudate; imazamox 7.5 g a.i./ha) was 16.5%, the pest or weed control at 15 g/ha (Echinochloa caudate; imazamox 15 g a.i./ha) was 24.8% and the pest or weed control at 30 g/ha (Echinochloa caudate; imazamox 30 g a.i./ha) was 53.8%.
Work on Cc1cnc(C2=NC(=O)C(C)(C(C)C)N2)c(C(=O)O)c1 (stereo not drawn) [imazapic] yielded a pest or weed control at 9.375 g/ha ([1]; B 9.375 g a.i./ha) of 1.2%, a pest or weed control at 18.75 g/ha ([1]; B 18.75 g a.i./ha) of 18.6% and a pest or weed control at 37.5 g/ha ([1]; B 37.5 g a.i./ha) of 26.9%. For the same compound, the pest or weed control at 75 g/ha ([1]; B 75 g a.i./ha) was 57%, the pest or weed control at 9.375 g/ha (Echinochloa oryzoides; Table 108, 9.375 g a.i./ha) was 4% and the pest or weed control at 18.75 g/ha (Echinochloa oryzoides; Table 108, 18.75 g a.i./ha) was 21.3%. The pest or weed control at 37.5 g/ha (Echinochloa oryzoides; Table 108, 37.5 g a.i./ha) was 30.4%, the pest or weed control at 75 g/ha (Echinochloa oryzoides; Table 108, 75 g a.i./ha) was 59.7% and the pest or weed control at 9.375 g/ha (Echinochloa caudate; imazapic 9.375 g a.i./ha) was 6.8%. The pest or weed control at 18.75 g/ha (Echinochloa caudate; imazapic 18.75 g a.i./ha) was 21.5%, the pest or weed control at 37.5 g/ha (Echinochloa caudate; imazapic 37.5 g a.i./ha) was 28.6% and the pest or weed control at 75 g/ha (Echinochloa caudate; imazapic 75 g a.i./ha) was 55.6%.
Work on CCc1cnc(C2=NC(C)(C(C)C)C(=O)N2)c(C(=O)O)c1 (stereo not drawn) [imazethapyr] yielded a pest or weed control at 7.5 g/ha [1] of 3.2%, a pest or weed control at 15 g/ha [1] of 19.8% and a pest or weed control at 30 g/ha [1] of 31.2%. For the same compound, the pest or weed control at 60 g/ha ([1]; B 60 g a.i./ha) was 59.2%, the pest or weed control at 7.5 g/ha (Echinochloa oryzoides; Table 107) was 6.7% and the pest or weed control at 15 g/ha (Echinochloa oryzoides; Table 107) was 17.8%. It also gave a pest or weed control at 30 g/ha (Echinochloa oryzoides; Table 107) of 34.6%, a pest or weed control at 60 g/ha (Echinochloa oryzoides; Table 107, 60 g a.i./ha) of 58.2% and a pest or weed control at 7.5 g/ha (Echinochloa caudate; imazethapyr 7.5 g a.i./ha) of 4.2%. The pest or weed control at 15 g/ha (Echinochloa caudate; imazethapyr 15 g a.i./ha) was 18.1%, the pest or weed control at 30 g/ha (Echinochloa caudate; imazethapyr 30 g a.i./ha) was 34.8% and the pest or weed control at 60 g/ha (Echinochloa caudate; imazethapyr 60 g a.i./ha) was 55.6%.
With COc1cc(OC)nc(NC(=O)NS(=O)(=O)c2ncccc2C(=O)N(C)C)n1 [nicosulfuron] the pest or weed control at 3.75 g/ha [1] was 7.3%, the pest or weed control at 7.5 g/ha [1] was 15.4% and the pest or weed control at 15 g/ha [1] was 39.3%. For the same compound, the pest or weed control at 30 g/ha [1] was 58.7%, the pest or weed control at 3.75 g/ha (Echinochloa oryzoides; Table 104) was 9.9% and the pest or weed control at 7.5 g/ha (Echinochloa oryzoides; Table 104) was 18.2%. It also gave a pest or weed control at 15 g/ha (Echinochloa oryzoides; Table 104) of 40.5%, a pest or weed control at 30 g/ha (Echinochloa oryzoides; Table 104) of 62.4% and a pest or weed control at 3.75 g/ha (Echinochloa caudate; nicosulfuron 3.75 g a.i./ha) of 3.8%. For the same compound, the pest or weed control at 7.5 g/ha (Echinochloa caudate; nicosulfuron 7.5 g a.i./ha) was 14.3%, the pest or weed control at 15 g/ha (Echinochloa caudate; nicosulfuron 15 g a.i./ha) was 40.2% and the pest or weed control at 30 g/ha (Echinochloa caudate; nicosulfuron 30 g a.i./ha) was 58.5%.
Compound COc1cnc(OC)n2nc(NS(=O)(=O)c3c(OCC(F)F)cccc3C(F)(F)F)nc12 [penoxsulam] has a pest or weed control at 1.875 g/ha ([1]; B 1.875 g a.i./ha) of 2.4%, a pest or weed control at 3.75 g/ha [1] of 10.9% and a pest or weed control at 7.5 g/ha [1] of 48.8%. For the same compound, the pest or weed control at 15 g/ha [1] was 70.1%, the pest or weed control at 1.875 g/ha (Echinochloa oryzoides; Table 101, 1.875 g a.i./ha) was 4.7% and the pest or weed control at 3.75 g/ha (Echinochloa oryzoides; Table 101) was 13.8%. For the same compound, the pest or weed control at 7.5 g/ha (Echinochloa oryzoides; Table 101) was 47.9%, the pest or weed control at 15 g/ha (Echinochloa oryzoides; Table 101) was 68.4% and the pest or weed control at 1.875 g/ha (Echinochloa caudate; penoxsulam 1.875 g a.i./ha) was 3.8%. For the same compound, the pest or weed control at 3.75 g/ha (Echinochloa caudate; penoxsulam 3.75 g a.i./ha) was 15.6%, the pest or weed control at 7.5 g/ha (Echinochloa caudate; penoxsulam 7.5 g a.i./ha) was 46.5% and the pest or weed control at 15 g/ha (Echinochloa caudate; penoxsulam 15 g a.i./ha) was 69.4%.
